These results are taken from patent US20240426776A1, “RAPID DIFFERENTIATION OF ANTIBIOTIC-SUSCEPTIBLE AND -RESISTANT BACTERIA THROUGH MEDIATED EXTRACELLULAR ELECTRON TRANSFER” (priority 2021, published 2024).

The subject of assay [1] is Acinetobacter baumannii (strains 35, 78, 83, and 102). As to the kind of experiment: Microdilution antibiotic susceptibility assay (MIC, CLSI guidelines). Format: cell-based. The following applies: for MIC: Acinetobacter baumannii, MH media, 16-18 h, 37° C., read-out: estimated minimum inhibitory concentration from this study. As for the experimental part:
(§1) Testing for S. aureus susceptibility to oxacillin differed with incubation at 30° C. for 18-24 h in MH media supplemented with 2% NaCl.
(§2) Values listed in Table 2 below include the estimated minimum inhibitory concentration from this study (μg/mL), the determination of(S) sensitive or (R) resistant microbes according to CLSI criteria, and the CLSI guidelines (μg/mL) for the species being tested. Empty cells were not evaluated.

Assay [2] relates to Escherichia coli (strains 61 and 77). The description is as above. Format: cell-based. The note with it: for MIC: Escherichia coli, MH media, 16-18 h, 37° C., read-out: estimated minimum inhibitory concentration from this study. Here is the method:
as §1, §2

Assay [3] concerns Acinetobacter baumannii (strains 35, 78, 83, and 102). The experiment in a line: READAS electrochemical current response with PMS mediator (ASIn). The class given is cell-based. The note with it: for ASIn (antibiotic susceptibility index), single replicates: ASI2, 15 μM PMS, 0.1 OD600. As for the experimental part:
(§3) For initial quality control, cyclic voltammetry scan was recorded from 0.5 V to −0.5 V then back to 0.5 V using the potentiostat 13 configuration. The potentiostat controls the working electrode voltage relative to the reference electrode.
(§4) For antibiotic susceptibility experiments, the working electrode 6 was controlled at 0 VAg/AgCl. The current can also be measured and analyzed for determining resistance/susceptibility of pathogens to drugs (e.g., antibiotics) using other devices such as a multiplexer or any interface instrument that can receive one or more data inputs and forward it to an output for analysis and feedback. In particular, such one or more data inputs can be directed to a processor, signal processor, computer-based system, etc. and thereafter/correspondingly any such interface instrument can receive instructions from, such processing instruments as better detailed in the description for the embodiment of FIG. 14 below. It is also to be noted that any induced currents undergo a decision methodology that can be interpreted by such a configured processor, signal processor, computer-based system, etc. for aiding in the determination of antibiotic susceptibility/resistance, such as, the methodology better detailed in the description of FIG. 6 below.
(§5) Turning back to the discussion for FIG. 1B but also FIG. 1A, an initial baseline was established in the MH media, PMS, and antibiotic mixture for 50-60 min before inoculating the electrochemical cell with a bacteria cell 2. On placing the bacteria cell 2 (again see FIG. 1A) into the electrochemical cell 10, the bacteria cell 2 undergoes metabolic reactions and generates electrons 4 through metabolic processes, as was generally described above. The electron transfer mediator used herein, e.g., PMS, thereafter, operates as an electron carrier in solution 3, and provides generated electrons 4 to the working electrode 6 (herein was aided by stirring mechanism 21, as shown in FIG. 1B). The working electrode 6 thus accepts the electrons provided by the reduced mediators (PMSr) so as to generate currents and returns the mediator back to its oxidized form ([…]) to keep the monitoring of respiration induced currents if viable.
(§6) Tests disclosed in the example embodiments herein for the purpose of illustration were conducted with an inoculum of 0.1 OD600. A cell density equating to 0.1 OD600 was determined for each species by serial dilution. Briefly, overnight cultures were adjusted to an OD600 of 0.1 and then serially diluted (10^0 to 10^−11) in a multi-well plate before transferring 10 μL of each dilution to separate TSA plates and grown overnight for 16-18 h. The colony forming units per mL (CFU/mL) were quantified using a drop plate method as known to those skilled in the art. Each measurement was replicated at least four times.
(§7) For performing example experimental tests disclosed in the embodiments herein for further reduction to practice, an overnight culture of the bacteria utilized was prepared. Such a culture was prepared by transferring, for example, two colonies from an agar streak plate into 8-ml MH broth and cultured overnight in an air incubator (37° C.) rotating at 120 rpm for 16-18 h. A 5-ml aliquot of culture was adjusted to 0.5 OD600 with fresh MH media and then centrifuged at 6000 rpm (4185×g) for 8 min and the supernatant decanted. The pellet was then resuspended in 5-mL of 30° C. (S. aureus experiments) or 37° C. (all others) MH media. After resuspension, 2 mL of the culture was used to verify optical density. Finally, 500 μL of the culture was inoculated to the electrochemical cuvettes by pipette through the cap inoculation port (2.5-ml final volume in the cuvette).
It is to be noted that a CLSI resistance breakpoint concentration is a defined concentration of a susceptible antibiotic that treats the bacteria. […]

For assay [4], the system named is Escherichia coli (strains 61 and 77). The description is as above. Format: cell-based. The note with it: for ASIn (antibiotic susceptibility index), single replicates: ASI2, 15 μM PMS, 0.1 OD600. Here is the method:
as §3, §4, §5, §6, §7
The magnitude of the current response was defined as the current magnitude at the inflection point between the exponential growth and the saturated current response.

Assay [5] has as its system Gram-negative 1 AR55 and Gram-negative 2 AR58. The experiment in a line: Standard procedure confirming blinded test (susceptibility, MIC, analysis time). Details: key to Standard procedure susceptibility or resistance (second symbol of cell): S: The standard procedure established susceptibility or resistance; R: The standard procedure established susceptibility or resistance. Format: cell-based. As for the experimental part: Both Gram-positive strains were correctly classified using 2×(12 μg/mL oxacillin) in <120 min (97±45 min and 103±33 min). The Gram-negative strains were also correctly classified after increasing concentrations of imipenem from 2× to 20×(12 to 120 μg/mL imipenem). […] These phenotypic results were confirmed with results of standard procedure known to those skilled in the art and are included in Table 4 below, wherein READAS(S) susceptibility was defined by an ASIn≥0.4; (R) resistant was defined by an ASIn<0.4; analysis time shown in minutes. The standard procedure established susceptibility or resistance, MIC in μg/mL, and analysis time shown in hours.

For assay [6], the system named is Escherichia coli (strains 61 and 77). The following applies: cited from earlier work.
Where [7] appears, read: strain 78 (resistant), imipenem 2×CLSI resistance breakpoint.
[8] abbreviates: strain 102 (susceptible), imipenem 2×CLSI resistance breakpoint.

≈ marks a conversion by molar mass, not a printed value. Where “and” joins values, the source holds several entries; their conditions need not be identical. Identical values can stand only once. Like-named read-outs stand apart in the source and are kept apart here.

In the case of `C[C@@H](O)[C@H]1C(=O)N2C(C(=O)O)=C(SCCN=CN)C[C@H]12` [Imipenem, imipenem], the MIC was 32 µg/mL (≈ 107 µM) in assay [1] (strain 78); 1 µg/mL (≈ 3.34 µM) in assay [1] (strain 102); 32 µg/mL (≈ 107 µM) in assay [2] (strain 61); 0.5 µg/mL (≈ 1.67 µM) in assay [2] (strain 77); ≥ 16 µg/mL in assay [5] (Gram-negative 1 (AR55)); ≤ 0.25 µg/mL in assay [5] (Gram-negative 2 (AR58)). Moreover, the “sensitive or resistant according to CLSI criteria” value is listed as “R” in assay [1] (strain 78), “S” in assay [1] (strain 102), “R” in assay [2] (strain 61) and “S” in assay [2] (strain 77). In addition, the figures for the “average ASI2 (average±SE)” value in assay [3] (setting [7]) and in assay [3] (setting [8]) were 0.02±0.13 and 0.47±0.08, respectively. Moreover, the “ASIn (antibiotic susceptibility index), single replicates” value in assay [3] (setting [7]) was 0.04 and −0.5 and 0.24 and 0.19 and 0.16; in assay [3] (setting [8]) it was 0.37 and 0.36 and 0.67 and 0.31 and 0.65; in assay [4] (strain 61 (resistant), imipenem 2× breakpoint (8 μg/mL)), 0.26 and −1.52 and 0.52 and −0.08; in assay [4] (strain 77 (susceptible), imipenem 2× breakpoint (8 μg/mL)) it was 0.98 and 0.97 and 0.96 and 0.54. Besides, the “average ASI2 (±SE)” value is −0.20±0.45 in assay [4] (strain 61 (resistant), imipenem 2× (8 μg/mL)) and 0.86±0.11 in assay [4] (strain 77 (susceptible), imipenem 2× (8 μg/mL)). For the same compound, the “Standard procedure susceptibility or resistance (second symbol of cell)” value in assay [5] (Gram-negative 1 (AR55)) is given as “R/R”; in assay [5] (Gram-negative 2 (AR58)), “S/S”.

On to `NC[C@H]1O[C@H](O[C@H]2[C@H](O)[C@@H](O[C@H]3O[C@H](CO)[C@@H](O)[C@H](N)[C@H]3O)[C@H](N)C[C@@H]2N)[C@H](N)C[C@@H]1O` [Tobramycin, tobramycin], for which the MIC in assay [1] (strain 35) was 0.5 µg/mL (≈ 1.07 µM); in assay [1] (strain 83), 128 µg/mL (≈ 274 µM); in assay [2] (strain 61), 16 µg/mL (≈ 34.2 µM); in assay [2] (strain 77), 0.5 µg/mL (≈ 1.07 µM). Also, the “sensitive or resistant according to CLSI criteria” value in assay [1] (strain 35) is “S”; in assay [1] (strain 83), “R”; in assay [2] (strain 61) it was “R”; in assay [2] (strain 77) it was “S”. Besides, the “average ASI2 (average±SE)” value in assay [3] (strain 35 (susceptible), tobramycin 2×CLSI resistance breakpoint) came to 0.63±0.13; in assay [3] (strain 83 (resistant), tobramycin 2×CLSI resistance breakpoint) it was 0.08±0.06. For the same compound, the “ASIn (antibiotic susceptibility index), single replicates” value in assay [3] (strain 35 (susceptible), tobramycin 2×CLSI resistance breakpoint (32 μg/mL)) was 0.48 and 1 and 0.4 and 0.64; in assay [3] (strain 35 (susceptible), tobramycin 2×CLSI resistance breakpoint (32 μg/mL), listed as tobramycin), 0.5; in assay [3] (strain 83 (resistant), tobramycin 2×CLSI resistance breakpoint (32 μg/mL)) it was −0.06 and −0.08 and 0.17 and 0.09 and 0.26; in assay [3] (strain 83 (resistant), tobramycin 2×CLSI resistance breakpoint (32 μg/mL), listed as tobramycin), 0.3; in assay [4] (strain 61 (resistant), tobramycin 2× breakpoint (32 μg/mL)), 0.23 and 0.15 and 0.47 and 0.16 and −0.16; in assay [4] (strain 77 (susceptible), tobramycin 2× breakpoint (32 μg/mL)), 0.92 and 0.4 and 0.86 and 0.33. Moreover, the “decrease in current compared to the control” value in assay [3] (susceptible strain (35), tobramycin 2×CLSI resistance breakpoint, 32 μg/mL, FIG. 4A) was determined as 50%. For the same compound, the “average ASI2 (±SE)” value in assay [4] (strain 61 (resistant), tobramycin 2× (32 μg/mL)) was 0.17±0.1; in assay [4] (strain 77 (susceptible), tobramycin 2× (32 μg/mL)), 0.62±0.15. Besides, the “CLSI guidelines (resistance breakpoint) for the species” value in assay [6] was 16 µg/mL.
